Laboratory results as given in the supplement of paper PMC10307832.

Columns and labels:
Test in all cases: relative viability (nuclei count vs DMSO), 5 days (fraction); higher = more cells survive
[1] = compound: Cc1ccc(C(=O)Nc2cccc(C(F)(F)F)c2)cc1Nc1cncc(C(N)=O)c1 [ALW-II-49-7] + Nc1nc2[nH]cc(CCc3ccc(C(=O)N[C@@H](CCC(=O)O)C(=O)O)cc3)c2c(=O)[nH]1 [Pemetrexed] (partner 0.2 µM)
Summary of the method: (§1)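 Relative viability equals treated-well nuclei counts divided by vehicle-well nuclei counts. Counts came from 4× images of lung cancer cell lines grown in 1536-well plates for 5 days after pin-tool dosing on the day after seeding. Dosing used one drug alone or a fixed anchor-drug dose plus five library-drug doses (not always all listed) in √10 steps, and values are medians of duplicate plates.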

[2] = compound: C1CC1C(=O)NC2=NNC3=C2C=CC(=C3)C4=CC(=CC=C4)C(=O)NC5CC5 [XMD13-2] + O=C(CCCCCCC(=O)Nc1ccccc1)NO [Vorinostat] (partner 1 µM)
Summary of the method: as §1

[3] = compound: Cc1ccc(C(=O)Nc2cccc(C(F)(F)F)c2)cc1Nc1cncc(C(N)=O)c1 [ALW-II-49-7] + CCNC(=O)c1noc(-c2cc(C(C)C)c(O)cc2O)c1-c1ccc(CN2CCOCC2)cc1 [Luminespib] (partner 0.01 µM)
Summary of the method: as §1

[4] = compound: C1CC1C(=O)NC2=NNC3=C2C=CC(=C3)C4=CC(=CC=C4)C(=O)NC5CC5 [XMD13-2] + Cc1nc(Nc2ncc(C(=O)Nc3c(C)cccc3Cl)s2)cc(N2CCN(CCO)CC2)n1 [Dasatinib] (partner 0.075 µM)
Summary of the method: as §1

Cell Line | relative viability ([1]; first compound 0.08 µM) | relative viability ([1]; first compound 0.253 µM) | relative viability ([1]; first compound 0.8 µM) | relative viability ([1]; first compound 2.53 µM) | relative viability ([1]; first compound 8 µM) | relative viability ([2]; first compound 0.05 µM) | relative viability ([2]; first compound 0.1581 µM) | relative viability ([2]; first compound 0.5 µM) | relative viability ([2]; first compound 1.581 µM) | relative viability ([2]; first compound 5 µM) | relative viability ([3]; first compound 0.08 µM) | relative viability ([3]; first compound 0.253 µM) | relative viability ([3]; first compound 0.8 µM) | relative viability ([3]; first compound 2.53 µM) | relative viability ([3]; first compound 8 µM) | relative viability ([4]; first compound 0.05 µM) | relative viability ([4]; first compound 0.1581 µM) | relative viability ([4]; first compound 0.5 µM) | relative viability ([4]; first compound 1.581 µM) | relative viability ([4]; first compound 5 µM)
NCI-H2023 | 0.235 | 0.23 | 0.237 | 0.214 | 0.242 | 0.837 | 0.668 | 0.696 | 0.731 | 0.94 | 0.524 | 0.754 | 0.919 | 0.682 | 0.476 | 0.806 | 0.545 | 0.688 | 0.559 | 0.64
NCI-H2085 | 0.867 | 1.01 | 0.913 | 1.01 | 0.854 | 0.897 | 0.745 | 0.842 | 0.711 | 0.81 | 0.405 | 0.465 | 0.445 | 0.4 | 0.44 | 0.265 | 0.246 | 0.232 | 0.235 | 0.243
NCI-H2087 | 0.637 | 0.679 | 0.673 | 0.606 | 0.621 | 0.686 | 0.902 | 0.729 | 0.898 | 0.853 | 0.142 | 0.166 | 0.197 | 0.171 | 0.171 | 0.997 | 0.826 | 0.938 | 0.87 | 0.796
NCI-H2126 | 0.733 | 0.708 | 0.654 | 0.661 | 0.755 | 0.849 | 0.731 | 0.745 | 0.749 | 0.735 | 0.938 | 0.932 | 0.855 | 0.803 | 0.868 | 0.76 | 0.595 | 0.633 | 0.535 | 0.561
